Measurements from paper PMC8253220, “Molecular design, synthesis and in vitro biological evaluation of thienopyrimidine–hydroxamic acids as chimeric kinase HDAC inhibitors: a challenging approach to combat cancer” (Journal of Enzyme Inhibition and Medicinal Chemistry, 2021).
“And” between values parts separate entries of the source, which are not always exact repeats. Equal values may be shown once.

What was measured:
Experiment in all cases: NCI one-dose screen
Type in all cases: cell-based, human
[1] = test system: 786-0; conditions: Renal 786-0, 10 µM single dose
Method in brief: (§1)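 At 10 μM, a single concentration, compounds were evaluated for antiproliferative effect in the NCI 60-line screen, with growth expressed relative to untreated control cells.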

[2] = test system: ACHN; conditions: Renal ACHN, 10 µM single dose
Method in brief: as §1

[3] = test system: BT-549; conditions: Breast BT-549, 10 µM single dose
Method in brief: as §1

[4] = test system: CAKI-1; conditions: Renal CAKI-1, 10 µM single dose
Method in brief: as §1

[5] = test system: COLO 205; conditions: Colon COLO 205, 10 µM single dose
Method in brief: as §1

[6] = test system: DU-145; conditions: Prostate DU-145, 10 µM single dose
Method in brief: as §1

[7] = test system: EKVX; conditions: NSCLC EKVX, 10 µM single dose
Method in brief: (§2)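 Each cell line received compound at 10 μM as part of the NCI one-dose protocol. Values reflect growth inhibition percent calculated from growth relative to untreated controls.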

[8] = test system: HCC-2998; conditions: Colon HCC-2998, 10 µM single dose
Method in brief: as §1

[9] = test system: HCT-116; conditions: Colon HCT-116, 10 µM single dose
Method in brief: as §1

[10] = test system: HCT-15; conditions: Colon HCT-15, 10 µM single dose
Method in brief: as §1

[11] = test system: HL-60(TB); conditions: Leukemia HL-60(TB), 10 µM single dose
Method in brief: as §1

[12] = test system: IGROV1; conditions: Ovarian IGROV1, 10 µM single dose
Method in brief: as §1

[13] = test system: K-562; conditions: Leukemia K-562, 10 µM single dose
Method in brief: as §1

[14] = test system: KM12; conditions: Colon KM12, 10 µM single dose
Method in brief: (§3)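 Following the standard NCI-60 protocol, compounds were applied once at 10 μM to all 60 cancer lines. Read-out is percent growth versus untreated controls, expressed as inhibition %.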

[15] = test system: LOX IMVI; conditions: Melanoma LOX IMVI, 10 µM single dose
Method in brief: as §1

[16] = test system: M14; conditions: Melanoma M14, 10 µM single dose
Method in brief: as §1

[17] = test system: MCF7; conditions: Breast MCF7, 10 µM single dose
Method in brief: as §3

[18] = test system: MDA-MB-231/ATCC; conditions: Breast MDA-MB-231/ATCC, 10 µM single dose
Method in brief: as §1

[19] = test system: MDA-MB-468; conditions: Breast MDA-MB-468, 10 µM single dose
Method in brief: as §3

[20] = test system: NCI-H23; conditions: NSCLC NCI-H23, 10 µM single dose
Method in brief: as §3

[21] = test system: NCI-H460; conditions: NSCLC NCI-H460, 10 µM single dose
Method in brief: as §1

[22] = test system: NCI-H522; conditions: NSCLC NCI-H522, 10 µM single dose
Method in brief: as §2

[23] = test system: NCI/ADR-RES; conditions: Ovarian NCI/ADR-RES, 10 µM single dose
Method in brief: as §1

[24] = test system: OVCAR-3; conditions: Ovarian OVCAR-3, 10 µM single dose
Method in brief: as §1

[25] = test system: OVCAR-4; conditions: Ovarian OVCAR-4, 10 µM single dose
Method in brief: as §1

[26] = test system: OVCAR-5; conditions: Ovarian OVCAR-5, 10 µM single dose
Method in brief: as §1

[27] = test system: RXF 393; conditions: Renal RXF 393, 10 µM single dose
Method in brief: as §1

[28] = test system: SF-268; conditions: CNS SF-268, 10 µM single dose
Method in brief: as §3

[29] = test system: SF-539; conditions: CNS SF-539, 10 µM single dose
Method in brief: as §3

[30] = test system: SK-MEL-28; conditions: Melanoma SK-MEL-28, 10 µM single dose
Method in brief: as §1

[31] = test system: SK-MEL-2; conditions: Melanoma SK-MEL-2, 10 µM single dose
Method in brief: (§4)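 One concentration (10 μM) applied to each line of the full NCI-60 panel; percent growth compared against untreated cells.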

[32] = test system: SK-MEL-5; conditions: Melanoma SK-MEL-5, 10 µM single dose
Method in brief: as §1

[33] = test system: SNB-19; conditions: CNS SNB-19, 10 µM single dose
Method in brief: as §4

[34] = test system: SNB-75; conditions: CNS SNB-75, 10 µM single dose
Method in brief: as §2

[35] = test system: U251; conditions: CNS U251, 10 µM single dose
Method in brief: as §2

SMILES | Growth Percent [1] | Growth Percent [2] | Growth Percent [3] | Growth Percent [4] | Growth Percent [5] | Growth Percent [6] | Growth Percent [7] | Growth Percent [8] | Growth Percent [9] | Growth Percent [10] | Growth Percent [11] | Growth Percent [12] | Growth Percent [13] | Growth Percent [14] | Growth Percent [15] | Growth Percent [16] | Growth Percent [17] | Growth Percent [18] | Growth Percent [19] | Growth Percent [20] | other results
Cc1c(C(=O)NO)sc2ncnc(Nc3ccc(NC(=S)Nc4ccccc4)cc3)c12 [Compound 7d, 1–(4-(6-(hydroxycarbamoyl)-5-methylthieno[2,3-d]pyrimidin-4-ylamino)phenyl)-3-phenylthiourea] | 99.1% and 99.11% | 105.4% and 105.43% | 106.3% and 106.33% | 96.5% and 96.56% | 112.9% and 112.97% | 106.96% | 93.6% and 93.61% | 99.8% and 99.86% | 105.2% and 105.28% | 95.3% and 95.39% | 102.7% and 102.72% | 111.5% and 111.55% | 103.0% and 103.01% | 102.1% and 102.11% | 93.7% and 93.76% | 104.3% | 95.2% and 95.28% | 94.9% and 94.96% | 103.9% and 103.92% | 96.5% and 96.54% | Growth Percent [21]: 102.0% and 102.05%; Growth Percent [22]: 92.1% and 92.13%; Growth Percent [23]: 99.5% and 99.55%; Growth Percent [24]: 111.0% and 111.03%; Growth Percent [25]: 104.6% and 104.62%; Growth Percent [26]: 102.8%; Growth Percent [27]: 103.7% and 103.72%; Growth Percent [28]: 98.1% and 98.17%; Growth Percent [29]: 100.3% and 100.31%; Growth Percent [30]: 105.0% and 105.07%; Growth Percent [31]: 104.1% and 104.16%; Growth Percent [32]: 101.2% and 101.24%; Growth Percent [33]: 96.4% and 96.45%; Growth Percent [34]: 87.9% and 87.95%; Growth Percent [35]: 104.0% and 104.08%
Cc1c(C(=O)NO)sc2ncnc(Nc3ccc(F)c(Cl)c3)c12 [Compound 15d, 4–(3-chloro-4-fluorophenylamino)-N-hydroxy-5-methylthieno[2,3-d]pyrimidine-6-carboxamide] | 94.4% and 94.41% | 97.6% and 97.62% | 114.0% and 114.08% | 90.4% and 90.42% | 112.3% and 112.34% | 101.9% and 101.96% | 88.0% and 88.08% | 102.4% and 102.42% | 106.8% | 96.0% and 96.09% | 101.9% and 101.99% | 103.9% and 103.95% | 105.3% and 105.38% | 102.3% and 102.31% | 101.3% and 101.32% | 110.2% and 110.24% | 93.8% and 93.88% | 97.2% and 97.25% | 85.6% and 85.68% | 95.7% and 95.72% | Growth Percent [21]: 101.5% and 101.54%; Growth Percent [22]: 88.1% and 88.16%; Growth Percent [23]: 99.6% and 99.61%; Growth Percent [24]: 108.5% and 108.52%; Growth Percent [25]: 102.2% and 102.21%; Growth Percent [26]: 101.3% and 101.35%; Growth Percent [27]: 100.3% and 100.37%; Growth Percent [28]: 96.5%; Growth Percent [29]: 98.5% and 98.57%; Growth Percent [30]: 109.6% and 109.62%; Growth Percent [31]: 100.9%; Growth Percent [32]: 100.5% and 100.59%; Growth Percent [33]: 91.8%; Growth Percent [34]: 99.2%; Growth Percent [35]: 98.2%
